Laboratory results reported in patent US20060063244A1, “Methods and composition for the production of orthogonal tRNA-aminoacyltRNA synthetase pairs” (The Scripps Research Institute, priority 2001, published 2006).
Numbering of substitutions follows the chain as printed. Numbers in names are those of the source.

Legend:
[1] = test system: valine position in the native protein; settings: edit-defective ValRS strain grown with Abu; cited from earlier work
mutant TyrRS = target: T1, mutant TyrRS (Methanocaldococcus jannaschii, UniProt Q57834, D158A/E107T/L162P/N268S/Y32Q); test: Pyrophosphate-exchange assay of adenylate formation; assay type: biochemical, Methanococcus jannaschii
T1 construct: His6 (C); made in house
Description: (§1) Kinetics of adenylate formation of O-methyl-L-tyrosine and tyrosine with adenosine triphosphate (ATP) catalyzed by the mutant TyrRS were analyzed in vitro using a pyrophosphate-exchange assay at 37° C. For example, the mutant TyrRS gene with six histidines at its C-terminus was cloned into plasmid pQE-60 (Qiagen, CA) to generate plasmid pQE-mJYRS. Protein was purified by immobilized metal affinity chromatography according to manufacture's protocol (Qiagen, CA). Pyrophosphate (PPi) exchange was carried out at 37° C. in a reaction mixture containing 100 mM TrisHCl (pH7.5), 10 mM KF, 5 mM MgCl2, 2 mM ATP, 2 mM NaPPi, 0.1 mg/mL bovine serum albumin, approximately 0.01 μCi/μL [^32P]NaPPi, and various concentrations of tyrosine or O-methyl-L-tyrosine. Reactions were initiated with the addition of the purified mutant TyrRS, and aliquots were periodically taken and quenched with 0.2 M NaPPi, 7% perchloric acid, and 2% activated charcoal. The charcoal was filtered and washed with 10 mM NaPPi (pH2), then measured by scintillation counting to determine the ^32P levels in charcoal-adsorbed ATP. Values of kcat and Km were calculated by direct fitting of the Michaelis-Menten equation using nonlinear regression analysis.

Escherichia coli = test: Effect on growth of Escherichia coli host cells; assay type: cell-based; settings: 1 mM added to medium
amber nonsense codon = test: Fidelity of translation by analysis of dihydrofolate reductase containing the unnatural amino acid; assay type: cell-based, Escherichia coli; settings: incorporation in response to amber nonsense codon
Source text: A unique transfer RNA (tRNA)-aminoacyl tRNA synthetase pair has been generated that expands the number of genetically encoded amino acids in Escherichia coli. When introduced into Escherichia coli, this pair leads to the in vivo incorporation of the synthetic amino acid O-methyl-L-tyrosine, added exogenously to the growth medium, into protein in response to an amber nonsense codon. The fidelity of translation is greater than 99%, as determined by analysis of dihydrofolate reductase containing the unnatural amino acid. This approach provides a general method for increasing the genetic repertoire of living cells to include a variety of amino acids with novel structural, chemical and physical properties not found in the common twenty amino acids.

[2] = test system: yeast PheRS / Escherichia coli PheRS; settings: cited from earlier work
E. coli cells = test: LC/MS analysis of toluenized E. coli cells grown with unnatural amino acid; assay type: cell-based; settings: E. coli grown in the presence of the amino acid
Source text: Generality of aminoacyl tRNA synthetase evolution. […] The enzyme can be evolved to accommodate a variety of functionalities in place of the phenol side chain of tyrosine and can do so with high selectivity. […] It was not possible to identify an enzyme variant that could accept the pCF unnatural amino acid. A second attempt to evolve a synthetase to accept the pCF amino acid was also unsuccessful.

[3] = test system: COc1ccc(C[C@H](N)C(=O)O)cc1; test: Pyrophosphate-exchange assay of adenylate formation; assay type: biochemical, Methanococcus jannaschii; settings: other: mutant TyrRS, 37° C.
Description: as §1

[4] = test system: N[C@@H](Cc1ccc(O)cc1)C(=O)O; test: as above; assay type: biochemical, Methanococcus jannaschii; settings: other: mutant TyrRS, 37° C.
Description: as §1

[5] = test system: Escherichia coli total tRNA / purified tRNA from Halobacterium; test: In vitro aminoacylation by archaeal leucyl-tRNA synthetases; assay type: biochemical
Description: The next step involved determination of a synthetase that charges the suppressor tRNA without interacting with host tRNA. The two chosen systems, Methanobacterium thermoautotrophicum and Methanococcus jannaschii were expressed, and aminoacylation was performed in vitro on purified tRNA from Halobacterium as a positive control, and for Escherichia coli total tRNA.

[6] = In vitro aminoacylation with leucine and methionine by editing-domain mutants of Methanobacterium thermoautotrophicum RS; assay type: biochemical
Source text: Next, point mutations were made in the editing domain. The catalytic core of the editing domain is well conserved across species and even for different amino acids, at least for the family of branched chain amino acids. Several of these conserved sites have previously been mutated, for example a T→P mutation, and found to knock out editing function. Mutants of Methanobacterium thermoautotrophicum RS were constructed that were similar to several known mutants, and also a 20 member NNK library derived from T214 was made. Proteins were expressed and examined in vitro for aminoacylation with leucine and methionine. None of the previously identified mutations were transferable to our system, but a desirable mutation was identified from the T214 library.

T1 sequence (Q57834 whole entry Y32Q/E107T/D158A/L162P/N268S): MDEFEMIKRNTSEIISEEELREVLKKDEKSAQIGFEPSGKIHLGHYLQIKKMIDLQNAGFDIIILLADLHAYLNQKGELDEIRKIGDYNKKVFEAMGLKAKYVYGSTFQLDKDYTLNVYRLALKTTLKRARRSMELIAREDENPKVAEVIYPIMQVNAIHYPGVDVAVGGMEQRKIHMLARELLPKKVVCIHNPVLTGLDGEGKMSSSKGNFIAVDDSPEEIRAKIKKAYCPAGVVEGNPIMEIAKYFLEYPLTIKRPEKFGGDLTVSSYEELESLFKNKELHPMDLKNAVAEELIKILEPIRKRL

Molecule: CCC(N)C(=O)O (centres unmarked) [Abu, aminobutyrate]
- valines replaced at each valine position [1]: about 24%

Molecule: COc1ccc(C[C@H](N)C(=O)O)cc1 [O-methyl-L-tyrosine]
- kcat/Km relative to tyrosine (mutant TyrRS): about 100 fold
- effect on growth rate of Escherichia coli (Escherichia coli): does not significantly affect the growth rate
- fidelity of translation (amber nonsense codon): greater than 99%

Molecule: N[C@@H](Cc1ccc(F)cc1)C(=O)O [p-F-Phe, p-fluorophenylalanine]
- share found at the Phe codon positions [2]: 7%
- share at the mutagenesis site ([2]; excess p-F-Phe in growth media): 64-75%

Molecule: N[C@@H](Cc1ccc(C(=O)O)cc1)C(=O)O [pCF, p-Carboxyl-Phenylalanine]
- detection in cells by LC/MS (E. coli cells): could not be detected

Molecule: N[C@@H](Cc1ccc(O)cc1)C(=O)O [tyrosine]
- Km relative to O-methyl-L-tyrosine (mutant TyrRS): approximately 13 fold
- kcat relative to O-methyl-L-tyrosine (mutant TyrRS): eight fold less

Molecule: mutant TyrRS (Methanocaldococcus jannaschii DSM 2661; D158A/E107T/L162P/N268S/Y32Q)
- Km [3]: 443 ± 93 µM
- kcat [3]: 14±1×10^−3 s^−1
- Km [4]: 5.833 ± 0.902 mM
- kcat [4]: 1.8±0.2×10^−3 s^−1

B1: Methanobacterium thermoautotrophicum synthetase: leucyl-tRNA synthetase from Methanobacterium thermoautotrophicum (protein, UniProt O27552 1-937, looked up)
Leucine--tRNA ligase: MDIERKWRDRWRDAGIFQADPDDREKIFLTVAYPYPSGAMHIGHGRTYTVPDVYARFKRMQGYNVLFPMAWHVTGAPVIGIARRIQRKDPWTLKIYREVHRVPEDELERFSDPEYIVEYFSREYRSVMEDMGYSIDWRREFKTTDPTYSRFIQWQIRKLRDLGLVRKGAHPVKYCPECENPVGDHDLLEGEGVAINQLTLLKFKLGDSYLVAATFRPETIYGATNLWLNPDEDYVRVETGGEEWIISRAAVDNLSHQKLDLKVSGDVNPGDLIGMCVENPVTGQEHPILPASFVDPEYATGVVFSVPAHAPADFIALEDLRTDHELLERYGLEDVVADIEPVNVIAVDGYGEFPAAEVIEKFGVRNQEDPRLEDATGELYKIEHARGVMSSHIPVYGGMKVSEAREVIADELKDQGLADEMYEFAERPVICRCGGRCVVRVMEDQWFMKYSDDAWKDLAHRCLDGMKIIPEEVRANFEYYIDWLNDWACSRRIGLGTRLPWDERWIIEPLTDSTIYMAYYTIAHRLREMDAGEMDDEFFDAIFLDDSGTFEDLREEFRYWYPLDWRLSAKDLIGNHLTFHIFHHSAIFPESGWPRGAVVFGMGLLEGNKMSSSKGNVILLRDAIEKHGADVVRLFLMSSAEPWQDFDWRESEVIGTRRRIEWFREFGERVSGILDGRPVLSEVTPAEPESFIGRWMMGQLNQRIREATRALESFQTRKAVQEALYLLKKDVDHYLKRVEGRVDDEVKSVLANVLHAWIRLMAPFIPYTAEEMWERYGGEGFVAEAPWPDFSDDAESRDVQVAEEMVQNTVRDIQEIMKILGSTPERVHIYTSPKWKWDVLRVAAEVGKLDMGSIMGRVSAEGIHDNMKEVAEFVRRIIRDLGKSEVTVIDEYSVLMDASDYIESEVGARVVIHSKPDYDPENKAVNAVPLKPAIYLE
- charging of Escherichia coli total tRNA versus Halobacterium tRNA [5]: specific towards the Halobacterium tRNA

B2: T214Q: editing-domain point mutant of Methanobacterium thermoautotrophicum leucyl-tRNA synthetase (protein, UniProt O27552 1-937, looked up, variant T214Q)
Leucine--tRNA ligase: B1 Leucine--tRNA ligase with T214Q
- charging with leucine [6]: capable of charging with leucine
- charging with methionine [6]: capable of charging methionine

B3: Methanococcus jannaschii synthetase: leucyl tRNA synthetase cloned from Methanococcus jannaschii (protein, UniProt Q58050 1-942, looked up)
Leucine--tRNA ligase: MMVMIDFKEIEKKWQKRWEEAKIFEANPDDREKFFITAAFPYLNGVLHAGHLRTFTIPEVVARFQRMKNKNVLWTFGYHVTGTPILGLAELIKNRDEKTIWAYTELHGIPKEELLELTTPEKIVEYFSKKAEEAFKRMGFSLDWRRNFKTDDKVFNKFIEWQFHKLKEKGLIVKGSHPVRYCPRCDNPVEDHDILVGENATLVEYILIKFTTEDGCIMPMATLRPETVFGVTNVWVNPEATYVKAKVYLEKETENGIELIENGIWIMAKECAEKLKHQDRKIEIIEEFKGEQLINKKVKNPVTGKEVPILPAKFVKTNIGTGCVMSVPAHAPYDYIALRDLGLVDEIGLIPLINVPGYGKYPAKEIVEKMGIKSQEEEDKLEEATKKIYKDEFHKGVLNENCLDYEGIPVREIKDKLTKDLIDKGLAEIMYEFSEEKVICRCGTPCIVKMVKGQWFIKYSDEKWKELAHKCIDKMRFIPENLRQVFHEKIDWMKDKACVRRRGLGTKFPFEEGWVIESLSDSTIYPAYYTVAKYINQHNIKPEQLTLELFDYVFLGKGDVDKIAKETGIPKDIIEGMRKEFIYYYPVDWRCSAKDLIPNHLTFYIFNHVAIFPEEFWPRGIVVNGYVTIEGKKLSKSKGPVLPVLEVAEKFGADVGRFYITTCAELPQDADIKFKEMENTKKVLERLYLFAKEIAERRGETGEEFSYIDKWLLSRLYKAVKQYDEYMENFELRKAGILLYQLLDDLKWYRRRGGNNIRVLEEFLEVIIKLMMPFTPHLCEEMWEILGKEGFVSLAKFPEVKEEFINDEIEKGEEYLKAVMEDIKEIINVAKVQPKRIYLYTADDWKYEILKIIKENEGKTIKELMPIIMKNPEFRKYGKEIPKLVNQLIKLNAEIINEVEVLENAKEFLKKEVGVEDIIINGEDKANKKRVAIPFKPAIYLE
- charging of Escherichia coli total tRNA versus Halobacterium tRNA [5]: able to effectively charge Escherichia coli tRNA
